Laboratory results as given in US11787854B2, “Immunological targeting of pathological tau proteins” (New York University, priority 2009, dated 2023).

Assays:
[1] = tested on: homozygous JNPL3 tau P301L mice; test: Rotarod test, actively immunized JNPL3 P301L mice; format: in vivo, mouse; conditions: at 5-6 months of age and at 8-9 months of age, vs adjuvant alone
Procedure: (§1) JNPL3 P301L mice received a subcutaneous injection of 100 μl followed by a second injection 2 weeks later and then monthly thereafter (unless otherwise indicated). Vaccination started at 2-3 months of age and continued until the animals were 8-9 months of age at which time the animals were perfused and their organs collected for analysis. The mice went through a battery of sensorimotor tests at 5-6 months and again at 8-9 months of age prior to sacrifice. Control mice received the adjuvant alone.
Rotarod Test: Animals were placed onto the rod (diameter 3.6 cm) apparatus to assess differences in motor coordination and balance by measuring fore- and hindlimb motor coordination and balance (Rotarod 7650 accelerating model; Ugo Basile, Biological Research Apparatus, Varese, Italy). This procedure was designed to assess motor behavior without a practice confound. The animals were habituated to the apparatus by receiving training sessions of two trials, sufficient to reach a baseline level of performance. Then, the mice were tested three additional times, with increasing speed. During habituation, the rotarod was set at 1.0 rpm, which was gradually raised every 30 sec, and was also wiped clean with 30% ethanol solution after each session. A soft foam cushion was placed beneath the apparatus to prevent potential injury from falling. […]

[2] = tested on: pathological tau; test: PHF1 immunostaining of pathological tau in brain of actively immunized JNPL3 P301L mice; format: in vivo, mouse; conditions: compared to control mice receiving adjuvant only
Procedure: as §1, with “alone. […]” for “alone.”
Analysis of tissue sections was quantified with a Bioquant image analysis system. […] For quantitative image analysis of immunohistochemistry, the granular layer of the dentate gyrus was initially selected which consistently contained intraneuronal tau aggregates (pretangles and tangles). […] Four to five sections were analyzed per animal.

[3] = tested on: JNPL3 P301L tangle mice; conditions: mouse, in vivo
[4] = tested on: homozygous JNPL3 tau P301L mice; test: Traverse beam test, actively immunized JNPL3 P301L mice; format: in vivo, mouse; conditions: at 8 months of age, vs adjuvant alone
Procedure: as §1
Traverse Beam: This task tests balance and general motor coordination and function integration. Mice were assessed by measuring their ability to traverse a graded narrow wooden beam to reach a goal box (Torres et al., “Behavioural, Histochemical and Biochemical Consequences of Selective Immunolesions in Discrete Regions of the Basal Forebrain Cholinergic System,” Neuroscience 63:95-122 (1994), which is hereby incorporated by reference in its entirety). The mice were placed on a 1.1 cm wide beam that is 50.8 cm long and suspended 30 cm above a padded surface by two identical columns. […] Mice were placed on the beam in a perpendicular orientation to habituate and were then monitored for a maximum of 60 sec. The number of foot slips each mouse had before falling or reaching the goal box were recorded for each of four successive trials. Errors are defined as footslips and were recorded numerically.

Substance | functional impairment, rotarod test [1] | pathological tau (PHF1 immunostaining) in the brain stem [2] | pathological tau (PHF1 immunostaining) in the dentate gyrus [2] | antibody response against the immunogen [3] | antibody response against the tau epitope [3] | functional impairment, traverse beam (footslips) [4]
IGS*TE [Tau260-264[P-Ser262]] | prevented functional impairment | reduced the levels of pathological tau | reduced the levels of pathological tau | robust IgG response against the immunogen | a good portion of the antibody response is also generated against the tau epitope | prevented functional impairment
RENAKAKTDHGAEIVYKXPVVSGDTXPRHL [Tau379-408[Asp396, 404]] | – | – | – | robust antibody (IgG) response | – | –
SRT*PS*LP [Tau210-216[P-Thr212-Ser214]] | – | – | – | robust IgG and IgM immune response | – | –
VRT*PPKS*PS [Tau229-237[P-Thr231-Ser235]] | – | – | – | robust antibody (IgG) response | – | –
